These are literature values, as cited in patent publication US20230285259A1, “METHOD FOR DYEING KERATINOUS MATERIAL, COMPRISING THE USE OF AN ORGANOSILICON COMPOUND, A DERIVATIVE OF ALKYLATED SILANOL, A COLORING COMPOUND AND A POST-TREATMENT AGENT” (Henkel AG & Co. KGaA, priority 2020, published 2023).

SMILES strings stand for the structures.

The conditions of this data set: 25° C.

As to `O=S(=O)(O)c1ccc(N=Nc2c(O)ccc3ccccc23)cc1` [Acid Orange 7, 4-[(2-hydroxy-1-naphthyl)azo]benzene sulphonate], the solubility in water result is “more than 7 g/L”. Turning to `CCN(Cc1cccc(S(=O)(=O)O)c1)c1ccc(C(=C2C=CC(=[N+](CC)Cc3cccc(S(=O)(=O)O)c3)C=C2)c2ccccc2S(=O)(=O)[O-])cc1` [Acid Blue 9], the solubility in water entry is listed as “more than 20 wt. %”. For the compound `O=[N+]([O-])c1cc([N+](=O)[O-])c2ccc(S(=O)(=O)O)cc2c1O` [Acid Yellow 9, 8-hydroxy-5,7-dinitro-2-naphthalenesulfonic acid], the solubility in water entry is listed as “above 40 g/L”. On to `O=C(O)C1=NN(c2ccc(S(=O)(=O)O)cc2)C(=O)C1N=Nc1ccc(S(=O)(=O)O)cc1` (stereo not shown) [Acid Yellow 23, 4,5-dihydro-5-oxo-1-(4-sulfophenyl)-4-((4-sulfophenyl)azo)-1H-pyrazole-3-carboxylic acid], for which the “solubility in water (in words)” value is recorded as “highly soluble”.
